20 molecules from PubChem BioAssay (NCI) can be followed below.

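A five-concentration, 48-hour dose response in 96-well plates underlies each endpoint, interpolated linearly between surrounding concentrations. GI50 marks 50% less growth. Definition used: TGI = concentration required for complete inhibition of growth.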 Bounds are passed on as bounds.

Among the test systems are NCI-H460 lung; SW-620 colon; SN12C renal; A549 NSCLC; OVCAR-4 ovarian; HOP-62 NSCLC; TK-10 renal; NCI-H23 lung; MCF7 breast; HCC-2998 colon; COLO 205 colon; MDA-N.
What all share (assay): growth of human tumour cells (NCI), 48 h

As for `COc1ccc(NC(C)=O)cc1C1CCC(=O)N1` (stereo not given), the TGI with NCI-H460 lung, in the assay on SW-620 colon, in the assay with SN12C renal, with A549 NSCLC, with OVCAR-4 ovarian and in the assay with HOP-62 NSCLC was more than 100 µM in each case. The TGI in the assay on TK-10 renal, with NCI-H23 lung, with MCF7 breast, in the assay with HCC-2998 colon and in the assay with COLO 205 colon was more than 100 µM throughout.
Take `O=c1oc2ccccc2c(O)c1C(c1ccc(/C=C/c2ccccc2)cc1)c1c(O)c2ccccc2oc1=O`: the TGI in the assay on NCI-H460 lung is 55.9 µM; with SW-620 colon, more than 100 µM; with SN12C renal, 53.9 µM; in the assay with OVCAR-4 ovarian, more than 100 µM; in the assay with HOP-62 NSCLC, 89.3 µM; with TK-10 renal it was more than 100 µM. Also, the TGI in the assay on NCI-H23 lung was more than 100 µM; in the assay with HCC-2998 colon it was 45.2 µM; in the assay with COLO 205 colon, 71.8 µM; with MDA-N, 43.9 µM.
`[N-]=[NH+]CC(=O)OC(COCc1ccccc1)COCc1ccccc1`: the TGI in the assay with NCI-H460 lung, in the assay on SW-620 colon, in the assay on SN12C renal, in the assay with OVCAR-4 ovarian, in the assay with HOP-62 NSCLC and in the assay on TK-10 renal was more than 100 µM each time. In addition, the TGI in the assay with NCI-H23 lung, in the assay with MCF7 breast, in the assay on HCC-2998 colon and in the assay on COLO 205 colon was more than 100 µM each time.
Take `CC1(C)CCC[C@@]2(C)C1CC[C@H]1CC(O)C3(C)CCC12C3` (stereo not given in full): the TGI in the assay on NCI-H460 lung came to 32.8 µM; in the assay with SW-620 colon, 30.8 µM; in the assay on SN12C renal it was 30.7 µM; in the assay with A549 NSCLC, 37.4 µM; with OVCAR-4 ovarian, 31.9 µM; with HOP-62 NSCLC it was 34.5 µM. Further, the TGI in the assay with TK-10 renal is 28.7 µM; with NCI-H23 lung, 32.8 µM; in the assay with HCC-2998 colon, 34.1 µM.
Take `NC(=S)N/N=C(\C(=O)Nc1cccc([N+](=O)[O-])c1)c1nc2ccc([N+](=O)[O-])cc2[nH]c1=O`: the TGI in the assay with NCI-H460 lung, in the assay with SW-620 colon, in the assay with A549 NSCLC, in the assay on OVCAR-4 ovarian, with HOP-62 NSCLC and with TK-10 renal was more than 100 µM each time. Also, the TGI in the assay with NCI-H23 lung, in the assay with HCC-2998 colon and in the assay with COLO 205 colon was more than 100 µM each time.
With `CCCn1c(SCC)c2cc3cc4ccccc4cc3cc2c1-c1nc(F)nc(F)n1`, the TGI in the assay with NCI-H460 lung, in the assay with SW-620 colon, in the assay with SN12C renal, in the assay with A549 NSCLC, in the assay with OVCAR-4 ovarian and with HOP-62 NSCLC was more than 100 µM throughout. Besides, the TGI with TK-10 renal, in the assay with NCI-H23 lung, in the assay with HCC-2998 colon and in the assay with COLO 205 colon was more than 100 µM in each case.
For `O=C(c1ccco1)N(C(=S)N1CCN(c2ccccn2)CC1)C1CCCCC1`, the TGI in the assay with NCI-H460 lung, in the assay on SW-620 colon, in the assay on SN12C renal, with A549 NSCLC, with OVCAR-4 ovarian and in the assay on HOP-62 NSCLC was more than 100 µM in each case. Moreover, the TGI in the assay on TK-10 renal, with NCI-H23 lung and with COLO 205 colon was more than 100 µM in each case.
On to `CC1=NN(c2nc(N)nc(CSCc3nc(N)nc(N(C)C)n3)n2)C(C)(C)C1`, for which the TGI in the assay on NCI-H460 lung, in the assay with SW-620 colon, with SN12C renal, with A549 NSCLC, in the assay on OVCAR-4 ovarian and in the assay with HOP-62 NSCLC was more than 100 µM each time. The TGI in the assay with TK-10 renal, in the assay on NCI-H23 lung, with MCF7 breast, with HCC-2998 colon and in the assay on COLO 205 colon was more than 100 µM each time.
Consider `CC(C)C1CCC/C=C/C=C/C=C/C=C/C(OC2OC(C)C(O)C(N)C2O)CC2OC(O)(CC(O)CC(O)C(O)CCC(=O)O1)CC(O)C2C(=O)O` (stereo not given), for which the TGI in the assay with SW-620 colon, in the assay with SN12C renal, in the assay with A549 NSCLC, in the assay on HOP-62 NSCLC and with COLO 205 colon was more than 52.5 µM throughout.
On to `CCOC(=O)C(NC(=O)CC(C)C)(Nc1ccc(S(=O)(=O)Nc2nc(C)cc(C)n2)cc1)C(F)(F)F` (stereo not given), for which the TGI with NCI-H460 lung, in the assay with SW-620 colon, in the assay on SN12C renal, with A549 NSCLC, in the assay with OVCAR-4 ovarian and in the assay on HOP-62 NSCLC was more than 100 µM in each case. Further, the TGI is more than 100 µM in the assay on TK-10 renal; more than 100 µM with NCI-H23 lung; 99.2 µM with HCC-2998 colon; more than 100 µM in the assay with COLO 205 colon; more than 100 µM in the assay with MDA-N.
On to `O=c1oc2ccccc2nc1/C=C(\O)c1ccc([N+](=O)[O-])cc1`, for which the TGI in the assay with NCI-H460 lung, with SN12C renal, in the assay on A549 NSCLC, with OVCAR-4 ovarian, in the assay on HOP-62 NSCLC and in the assay on TK-10 renal was more than 100 µM in each case. Besides, the TGI with NCI-H23 lung, in the assay with MCF7 breast, with HCC-2998 colon and in the assay on COLO 205 colon was more than 100 µM each time.
For the molecule `O=C(c1cccs1)N(C(=S)N1CCN(c2ccccn2)CC1)C1CCCCC1`, the TGI in the assay on NCI-H460 lung, in the assay with SW-620 colon, in the assay with SN12C renal, with A549 NSCLC, in the assay with OVCAR-4 ovarian and with HOP-62 NSCLC was more than 100 µM in each case. Further, the TGI in the assay with TK-10 renal is more than 100 µM; in the assay with NCI-H23 lung, more than 100 µM; with COLO 205 colon it was 46.8 µM.
Regarding `CNn1c(C)n[nH]c1=O`, the TGI with NCI-H460 lung, with SW-620 colon, in the assay with SN12C renal, in the assay on A549 NSCLC, in the assay with OVCAR-4 ovarian and in the assay on HOP-62 NSCLC was more than 100 µM in each case. Further, the TGI in the assay on TK-10 renal, in the assay with NCI-H23 lung, in the assay with MCF7 breast, with HCC-2998 colon and with COLO 205 colon was more than 100 µM throughout.
For `CSc1nc(NC(=O)O)c(N(C(C)=O)C(=O)O)c(=O)n1C`, the TGI in the assay on NCI-H460 lung, with SW-620 colon, in the assay on SN12C renal, in the assay on A549 NSCLC, with OVCAR-4 ovarian and in the assay with HCC-2998 colon was more than 100 µM in each case. Besides, the TGI in the assay with COLO 205 colon was more than 100 µM.
On to `O=C(Nc1ccc(F)cc1)C(=O)C(C1OC(=O)c2ccccc21)[N+](=O)[O-]` (stereo not given), for which the TGI with NCI-H460 lung, in the assay with SW-620 colon, in the assay on A549 NSCLC, in the assay with OVCAR-4 ovarian, in the assay with HOP-62 NSCLC and with TK-10 renal was more than 100 µM in each case. Further, the TGI with NCI-H23 lung, in the assay on HCC-2998 colon and in the assay with COLO 205 colon was more than 100 µM throughout.
Turning to `Fc1ccccc1-c1nn2c(C34CC5CC(CC(C5)C3)C4)nnc2s1`, the TGI in the assay on NCI-H460 lung, in the assay with SW-620 colon, in the assay with SN12C renal, in the assay on A549 NSCLC, with OVCAR-4 ovarian and with HOP-62 NSCLC was more than 100 µM throughout. Further, the TGI in the assay on NCI-H23 lung, in the assay on HCC-2998 colon, in the assay on COLO 205 colon and in the assay on MDA-N was more than 100 µM throughout.
On to `COc1cc(C2C3=C(COC3=O)Oc3cc4c(cc32)OCO4)ccc1OC(C)=O` (stereo not given), for which the TGI is more than 100 µM in the assay with NCI-H460 lung; more than 100 µM in the assay on SW-620 colon; more than 100 µM in the assay on SN12C renal; more than 100 µM in the assay with A549 NSCLC; more than 29.8 µM with OVCAR-4 ovarian; more than 100 µM in the assay on HOP-62 NSCLC. Besides, the TGI was more than 100 µM with TK-10 renal; more than 100 µM in the assay on NCI-H23 lung; more than 100 µM with MCF7 breast; 5.96 µM in the assay with HCC-2998 colon; 0.602 µM with COLO 205 colon.
As for `CC1=C(C(=O)NCCc2ccccc2)CC(C(=O)NCCc2ccccc2)=C(C)N1`, the TGI with NCI-H460 lung, in the assay on SW-620 colon, with SN12C renal, in the assay on A549 NSCLC, with OVCAR-4 ovarian and in the assay on HOP-62 NSCLC was more than 100 µM each time. The TGI in the assay with TK-10 renal, with NCI-H23 lung, in the assay with MCF7 breast, in the assay on HCC-2998 colon and with COLO 205 colon was more than 100 µM each time.
With `Cc1ccc(NC(=O)CC(=O)n2nc(-c3ccccc3)c(N=Nc3ccccc3Cl)c2-c2ccccc2)cc1`, the TGI is more than 100 µM in the assay on NCI-H460 lung; more than 100 µM in the assay with SW-620 colon; more than 100 µM with SN12C renal; more than 100 µM with A549 NSCLC; 87.2 µM with OVCAR-4 ovarian; more than 100 µM with HOP-62 NSCLC. Also, the TGI with TK-10 renal, in the assay with NCI-H23 lung, in the assay on HCC-2998 colon and with COLO 205 colon was more than 100 µM throughout. The GI50 with SN12C renal, in the assay on HCC-2998 colon and in the assay with COLO 205 colon was more than 100 µM throughout.
For the molecule `CCCN1CN(C(C(=O)N[C@@H]2C(=O)N3C(C(=O)O)=C(C)CSC23)c2ccc(O)cc2)CSC1=S` (stereo not given in full), the TGI in the assay with NCI-H460 lung was more than 100 µM; in the assay with SW-620 colon, 30.8 µM; with SN12C renal it was more than 100 µM; in the assay with A549 NSCLC, more than 100 µM; in the assay with OVCAR-4 ovarian it was more than 100 µM; with HOP-62 NSCLC, more than 100 µM. Moreover, the TGI in the assay on TK-10 renal, in the assay with NCI-H23 lung and in the assay on COLO 205 colon was more than 100 µM throughout.
